Test [1] deals with Mycobacterium tuberculosis. The test is described as follows: Antibacterial activity against multidrug-resistant Mycobacterium tuberculosis harboring gyrA D94A mutation by agar proportion method. It is filed as functional.
The subject of test [2] is Mycobacterium tuberculosis. The test is described as follows: Antibacterial activity against multidrug-resistant Mycobacterium tuberculosis by agar proportion method. It counts as functional.

Values after ≈ are worked out from the molar mass of the structure shown.

Take `CC(=O)NC[C@H]1CN(c2ccc(N3CCOCC3)c(F)c2)C(=O)O1` [LINEZOLID]: the minimum inhibitory concentration (MIC) (in general, the smallest concentration in the dilution series that meets the test's criterion for growth inhibition) in test [1] was found to be 4 µg/mL (≈ 11.9 µM). Moreover, in test [2], the MIC50 (in general, an inhibitory concentration at the 50% level, which refers to growth in some studies and to a panel of isolates in others) was 0.5 µg/mL (≈ 1.48 µM); the MIC90 – broadly, an inhibitory concentration at the 90% level, which refers to growth in some studies and to a panel of isolates in others – was determined as 0.5 µg/mL (≈ 1.48 µM).
